{
  "source": "ChEMBL document CHEMBL5380817",
  "about": "“Discovery of LL-K8-22: A Selective, Durable, and Small-Molecule Degrader of the CDK8-Cyclin C Complex” (J Med Chem, 2023)",
  "key": {"HCT-116": {"system": "HCT-116", "assay": "Antiproliferative activity against human HCT-116 cells assessed as reduction in cell viability incubated for 4 days by Celltiter glo luminescent assay", "assay_type": "functional, cell-based", "conditions": "time 4.0 day"}, "MDA-MB-468": {"system": "MDA-MB-468", "assay": "Antiproliferative activity against human MDA-MB-468 cells assessed as reduction in cell growth at 5 to 20 uM measured upto 5 days by Celltiter glo luminescent assay", "assay_type": "functional, cell-based", "conditions": "dose 5-20 µM, time <= 5.0 day"}, "[1]": {"molecular_target": "T1, CDK8/Cyclin C (Homo sapiens) (UniProt P49336+P24863)", "assay": "Hydrophobic-tagging degradation activity at CDK8/Cyclin C in human MDA-MB-468 cells assessed as downregulation of […] phosphorylation at Tyr701 residue at 2 to 8 uM incubated for 24 hrs by Western blotting analysis", "assay_type": "cell-based", "conditions": "dose 2-8 µM"}, "[2]": {"molecular_target": "T1, CDK8/Cyclin C (Homo sapiens)", "assay": "Hydrophobic-tagging degradation activity at CDK8/Cyclin C in human MDA-MB-468 cells assessed as downregulation of d EAPP expression level at 4 uM incubated for 24 hrs by proteomic analysis", "assay_type": "cell-based"}, "MDA-MB-231 [3]": {"system": "MDA-MB-231", "assay": "Antiproliferative activity against human MDA-MB-231 cells assessed as reduction in cell viability incubated for 4 days by Celltiter glo luminescent assay", "assay_type": "functional, cell-based", "conditions": "time 4.0 day"}, "[4]": {"molecular_target": "Cyclin-dependent kinase 8 (Homo sapiens, UniProt P49336)", "sequence (P49336 whole entry)": "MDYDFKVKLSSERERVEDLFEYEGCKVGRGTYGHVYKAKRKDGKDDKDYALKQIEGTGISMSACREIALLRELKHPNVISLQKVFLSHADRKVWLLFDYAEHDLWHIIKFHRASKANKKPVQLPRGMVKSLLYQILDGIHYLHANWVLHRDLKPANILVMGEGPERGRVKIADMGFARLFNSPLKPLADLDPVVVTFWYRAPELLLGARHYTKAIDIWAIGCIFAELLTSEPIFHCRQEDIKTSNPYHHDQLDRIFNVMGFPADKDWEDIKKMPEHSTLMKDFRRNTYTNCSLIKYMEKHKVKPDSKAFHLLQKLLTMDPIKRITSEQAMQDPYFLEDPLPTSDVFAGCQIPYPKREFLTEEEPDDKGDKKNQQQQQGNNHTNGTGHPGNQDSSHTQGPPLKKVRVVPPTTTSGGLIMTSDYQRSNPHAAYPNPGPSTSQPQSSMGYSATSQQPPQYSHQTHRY", "assay": "Hydrophobic-tagging degradation activity at CDK8 in human MDA-MB-468 cells assessed as downregulation of RAP2C protein expression at 5 uM incubated for 12 hrs by DIA-based proteomic analysis", "assay_type": "cell-based"}, "[5]": {"molecular_target": "G1/S-specific cyclin-E1 (Homo sapiens) (UniProt P24864)", "sequence (P24864 whole entry)": "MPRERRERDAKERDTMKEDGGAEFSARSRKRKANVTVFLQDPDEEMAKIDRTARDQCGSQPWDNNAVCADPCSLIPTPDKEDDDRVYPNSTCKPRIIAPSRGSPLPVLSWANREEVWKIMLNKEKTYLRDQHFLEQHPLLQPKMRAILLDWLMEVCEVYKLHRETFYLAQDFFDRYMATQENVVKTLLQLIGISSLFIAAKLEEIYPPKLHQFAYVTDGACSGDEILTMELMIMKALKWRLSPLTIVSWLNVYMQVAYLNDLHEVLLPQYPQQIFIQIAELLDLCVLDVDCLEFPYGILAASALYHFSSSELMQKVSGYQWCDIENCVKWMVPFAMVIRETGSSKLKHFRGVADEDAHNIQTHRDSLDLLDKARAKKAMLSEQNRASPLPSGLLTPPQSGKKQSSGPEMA", "assay": "PROTAC activity at Cyclin E1 in human MDA-MB-468 cells assessed as degradation of Cyclin E1 at 0.625 to 10 uM incubated for 24 hrs by Western blotting analysis", "assay_type": "cell-based", "conditions": "dose 0.625-10 µM"}, "[6]": {"molecular_target": "Cyclin-dependent kinase 7 (Homo sapiens) (UniProt P50613)", "sequence (P50613 whole entry)": "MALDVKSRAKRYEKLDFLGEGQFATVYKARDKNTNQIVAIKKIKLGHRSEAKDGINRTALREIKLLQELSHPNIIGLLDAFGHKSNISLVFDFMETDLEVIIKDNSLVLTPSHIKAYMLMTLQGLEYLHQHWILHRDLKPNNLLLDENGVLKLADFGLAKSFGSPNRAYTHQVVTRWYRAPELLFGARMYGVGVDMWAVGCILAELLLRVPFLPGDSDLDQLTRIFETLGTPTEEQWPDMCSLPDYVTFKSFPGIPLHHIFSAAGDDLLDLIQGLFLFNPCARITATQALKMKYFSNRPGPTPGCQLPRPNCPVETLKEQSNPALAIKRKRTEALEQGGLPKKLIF", "assay": "Hydrophobic-tagging degradation activity at CDK7 in human MDA-MB-468 cells assessed as degradation of CDK7 at 0.625 to 10 uM incubated for 24 hrs by Western blotting analysis", "assay_type": "cell-based", "conditions": "dose 0.625-10 µM"}, "[7]": {"molecular_target": "T1, CDK8/Cyclin C (Homo sapiens)", "assay": "Hydrophobic-tagging degradation activity at CDK8/Cyclin C in human MDA-MB-231 cells assessed as protein degradation at 1.5 to 30 uM incubated for 48 hrs by Western blotting analysis", "assay_type": "cell-based", "conditions": "dose 1.5-30 µM"}, "[8]": {"molecular_target": "T1, CDK8/Cyclin C (Homo sapiens)", "assay": "Hydrophobic-tagging degradation activity at CDK8/Cyclin C in human MDA-MB-468 cells assessed as protein degradation at 10 uM incubated for 2 to 20 hrs in presence of cycloheximide by Western blotting analysis", "assay_type": "cell-based", "conditions": "time 2-20 hrs, TDE = time-dependent effect"}, "[9]": {"molecular_target": "Cyclin-dependent kinase 1 (Homo sapiens) (UniProt P06493)", "sequence (P06493 whole entry, looked up)": "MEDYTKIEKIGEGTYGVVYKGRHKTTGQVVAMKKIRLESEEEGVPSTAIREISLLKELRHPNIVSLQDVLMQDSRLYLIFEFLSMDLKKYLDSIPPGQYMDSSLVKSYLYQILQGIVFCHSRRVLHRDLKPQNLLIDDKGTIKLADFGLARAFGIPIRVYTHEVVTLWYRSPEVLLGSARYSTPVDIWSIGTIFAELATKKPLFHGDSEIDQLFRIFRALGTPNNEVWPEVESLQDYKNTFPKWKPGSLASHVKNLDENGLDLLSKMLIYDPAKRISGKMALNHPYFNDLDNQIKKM", "assay": "Hydrophobic-tagging degradation activity at CDK1 in human MDA-MB-468 cells assessed as degradation of CDK1 at 10 uM incubated for 24 hrs by Western blotting analysis", "assay_type": "cell-based"}, "[10]": {"molecular_target": "T1, CDK8/Cyclin C (Homo sapiens)", "assay": "Hydrophobic-tagging degradation activity at CDK8/Cyclin C in human MDA-MB-468 cells assessed as downregulation of TERT gene expression level at 4 uM incubated for 24 hrs by qPT-PCR analysis", "assay_type": "cell-based"}, "[11]": {"molecular_target": "T1, CDK8/Cyclin C (Homo sapiens)", "assay": "Hydrophobic-tagging degradation activity at CDK8/Cyclin C in human MDA-MB-468 cells assessed as protein degradation at 1.1 to 10 uM incubated for 48 hrs by Western blotting analysis", "assay_type": "cell-based", "conditions": "dose 1.1-10 µM"}, "[12]": {"molecular_target": "Cyclin-dependent kinase 4 (Homo sapiens) (UniProt P11802)", "sequence (P11802 whole entry)": "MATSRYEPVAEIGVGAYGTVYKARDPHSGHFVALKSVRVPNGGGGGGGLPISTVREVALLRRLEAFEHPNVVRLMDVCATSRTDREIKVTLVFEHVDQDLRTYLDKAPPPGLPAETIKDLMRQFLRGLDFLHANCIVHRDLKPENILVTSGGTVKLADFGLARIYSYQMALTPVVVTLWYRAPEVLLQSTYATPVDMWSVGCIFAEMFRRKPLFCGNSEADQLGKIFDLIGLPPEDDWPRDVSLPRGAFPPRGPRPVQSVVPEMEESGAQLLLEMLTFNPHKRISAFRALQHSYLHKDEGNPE", "assay": "Hydrophobic-tagging degradation activity at CDK4 in human MDA-MB-468 cells assessed as degradation of CDK4 at 0.625 to 10 uM incubated for 24 hrs by Western blotting analysis", "assay_type": "cell-based", "conditions": "dose 0.625-10 µM"}, "[13]": {"molecular_target": "Cyclin-dependent kinase 5 (Homo sapiens) (UniProt Q00535)", "sequence (Q00535 whole entry, looked up)": "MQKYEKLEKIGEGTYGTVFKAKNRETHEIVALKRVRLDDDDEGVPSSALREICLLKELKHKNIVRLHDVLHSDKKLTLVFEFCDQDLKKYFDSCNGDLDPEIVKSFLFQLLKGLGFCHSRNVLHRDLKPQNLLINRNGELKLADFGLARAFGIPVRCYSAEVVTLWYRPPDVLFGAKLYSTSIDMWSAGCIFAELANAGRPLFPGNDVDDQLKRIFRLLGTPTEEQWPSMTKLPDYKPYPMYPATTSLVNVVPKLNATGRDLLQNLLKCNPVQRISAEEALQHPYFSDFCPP", "assay": "PROTAC activity at CDK5 in human MDA-MB-468 cells assessed as degradation of CDK5 at 0.625 to 10 uM incubated for 24 hrs by Western blotting analysis", "assay_type": "cell-based", "conditions": "dose 0.625-10 µM"}, "[14]": {"molecular_target": "T1, CDK8/Cyclin C (Homo sapiens)", "assay": "Hydrophobic-tagging degradation activity at CDK8/Cyclin C in human MDA-MB-468 cells assessed as protein degradation at 3 uM incubated for 24 hrs in presence of 17-AAG by Western blotting analysis", "assay_type": "cell-based"}, "[15]": {"molecular_target": "Cyclin-dependent kinase 6 (Homo sapiens) (UniProt Q00534)", "sequence (Q00534 whole entry)": "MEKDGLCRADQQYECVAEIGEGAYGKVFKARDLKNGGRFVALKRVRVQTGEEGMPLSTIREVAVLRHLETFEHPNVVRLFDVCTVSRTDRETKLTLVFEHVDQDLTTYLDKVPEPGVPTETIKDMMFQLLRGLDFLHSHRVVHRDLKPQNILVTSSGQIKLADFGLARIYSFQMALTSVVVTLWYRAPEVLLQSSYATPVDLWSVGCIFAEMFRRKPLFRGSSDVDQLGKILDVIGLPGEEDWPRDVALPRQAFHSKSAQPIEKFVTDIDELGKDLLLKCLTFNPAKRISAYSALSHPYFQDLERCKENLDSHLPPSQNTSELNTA", "assay": "PROTAC activity at CDK6 in human MDA-MB-468 cells assessed as degradation of CDK6 at 0.625 to 10 uM incubated for 24 hrs by Western blotting analysis", "assay_type": "cell-based", "conditions": "dose 0.625-10 µM"}, "[16]": {"molecular_target": "T1, CDK8/Cyclin C (Homo sapiens)", "assay": "Hydrophobic-tagging degradation activity at CDK8/Cyclin C in human MDA-MB-468 cells assessed as downregulation of STAT1 phosphorylation at Ser727 residue at 4 uM incubated for 24 hrs followed by compound washout and measured after 24 hrs by Western blotting analysis", "assay_type": "cell-based"}, "[17]": {"molecular_target": "T1, CDK8/Cyclin C (Homo sapiens)", "assay": "Hydrophobic-tagging degradation activity at CDK8/Cyclin C in human MDA-MB-468 cells assessed as downregulation of C-terminal RNA polymerase II phosphorylation at serine 2 at 2 to 8 uM incubated for 24 hrs by Western blotting analysis", "assay_type": "cell-based", "conditions": "dose 2-8 µM"}, "[18]": {"molecular_target": "T1, CDK8/Cyclin C (Homo sapiens)", "assay": "Hydrophobic-tagging degradation activity at CDK8/Cyclin C in human MDA-MB-468 cells assessed as downregulation of MYC gene expression level at 4 uM incubated for 24 hrs by qPT-PCR analysis", "assay_type": "cell-based"}, "[19]": {"molecular_target": "T1, CDK8/Cyclin C (Homo sapiens)", "assay": "Hydrophobic-tagging degradation activity at CDK8/Cyclin C in human MDA-MB-468 cells assessed as protein degradation at 0.38 to 12 uM incubated for 48 hrs by Western blotting analysis", "assay_type": "cell-based", "conditions": "dose 0.38-12 µM"}, "[20]": {"molecular_target": "Cyclin-dependent kinase 2 (Homo sapiens) (UniProt P24941)", "assay": "PROTAC activity at CDK2 in human MDA-MB-468 cells assessed as degradation of CDK2 at 0.625 to 10 uM incubated for 24 hrs by Western blotting analysis", "assay_type": "cell-based", "conditions": "dose 0.625-10 µM"}, "Cyclin-T1 (Homo sapiens)": {"molecular_target": "Cyclin-T1 (Homo sapiens) (UniProt O60563)", "sequence (O60563 whole entry)": "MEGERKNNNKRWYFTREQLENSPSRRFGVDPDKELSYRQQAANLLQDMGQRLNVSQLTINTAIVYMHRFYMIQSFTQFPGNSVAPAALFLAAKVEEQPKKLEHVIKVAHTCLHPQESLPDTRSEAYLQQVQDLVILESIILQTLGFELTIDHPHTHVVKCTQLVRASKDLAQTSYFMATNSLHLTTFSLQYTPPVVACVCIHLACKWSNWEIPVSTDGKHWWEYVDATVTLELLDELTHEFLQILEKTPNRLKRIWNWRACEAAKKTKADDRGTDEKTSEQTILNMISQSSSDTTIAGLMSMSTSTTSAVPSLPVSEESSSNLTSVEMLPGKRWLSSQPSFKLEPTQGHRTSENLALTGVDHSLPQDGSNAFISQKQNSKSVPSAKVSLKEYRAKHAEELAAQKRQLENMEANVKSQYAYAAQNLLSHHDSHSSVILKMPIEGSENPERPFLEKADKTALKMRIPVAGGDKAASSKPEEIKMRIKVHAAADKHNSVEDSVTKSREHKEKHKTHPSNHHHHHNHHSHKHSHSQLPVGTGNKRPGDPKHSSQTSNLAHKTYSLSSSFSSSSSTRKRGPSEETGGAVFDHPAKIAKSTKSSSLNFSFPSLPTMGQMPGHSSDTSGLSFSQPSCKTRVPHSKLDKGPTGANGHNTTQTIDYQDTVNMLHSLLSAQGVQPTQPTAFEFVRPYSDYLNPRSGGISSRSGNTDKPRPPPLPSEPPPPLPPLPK", "assay": "PROTAC activity at Cyclin T1 in human MDA-MB-468 cells assessed as degradation of Cyclin T1 at 0.625 to 10 uM incubated for 24 hrs by Western blotting analysis", "assay_type": "cell-based", "conditions": "dose 0.625-10 µM"}, "MDA-MB-231 [21]": {"system": "MDA-MB-231", "assay": "Antiproliferative activity against human MDA-MB-231 cells assessed as inhibition of cell proliferation incubated for 4 days by Celltiter glo luminescent assay", "assay_type": "functional, cell-based", "conditions": "MDA-MB-231, 96 h"}, "[22]": {"molecular_target": "G2/mitotic-specific cyclin-B1 (Homo sapiens) (UniProt P14635)", "sequence (P14635 whole entry)": "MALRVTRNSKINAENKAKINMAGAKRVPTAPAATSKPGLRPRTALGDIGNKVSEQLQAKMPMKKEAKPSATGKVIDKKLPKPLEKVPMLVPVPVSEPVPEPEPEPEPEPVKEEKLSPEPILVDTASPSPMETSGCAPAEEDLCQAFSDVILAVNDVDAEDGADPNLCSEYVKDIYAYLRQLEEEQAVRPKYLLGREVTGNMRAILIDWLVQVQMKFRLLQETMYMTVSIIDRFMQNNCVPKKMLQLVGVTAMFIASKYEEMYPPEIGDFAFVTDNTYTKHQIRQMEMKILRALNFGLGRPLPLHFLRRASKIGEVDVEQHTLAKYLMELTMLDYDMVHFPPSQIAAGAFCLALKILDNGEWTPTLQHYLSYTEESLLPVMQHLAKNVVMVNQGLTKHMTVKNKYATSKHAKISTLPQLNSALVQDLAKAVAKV", "assay": "PROTAC activity at Cyclin B1 in human MDA-MB-468 cells assessed as degradation of Cyclin B1 at 0.625 to 10 uM incubated for 24 hrs by Western blotting analysis", "assay_type": "cell-based", "conditions": "dose 0.625-10 µM"}, "[23]": {"molecular_target": "T1, CDK8/Cyclin C (Homo sapiens)", "assay": "Hydrophobic-tagging degradation activity at CDK8/Cyclin C in human MDA-MB-468 cells assessed as downregulation of Rb phosphorylation at 2 to 8 uM incubated for 24 hrs by Western blotting analysis", "assay_type": "cell-based", "conditions": "dose 2-8 µM"}, "[24]": {"molecular_target": "T1, CDK8/Cyclin C (Homo sapiens)", "assay": "Hydrophobic-tagging degradation activity at CDK8/Cyclin C in human MDA-MB-468 cells assessed as downregulation of RET gene expression level at 4 uM incubated for 24 hrs by qPT-PCR analysis", "assay_type": "cell-based"}, "[25]": {"molecular_target": "Cyclin-dependent kinase 9 (Homo sapiens) (UniProt P50750)", "sequence (P50750 whole entry)": "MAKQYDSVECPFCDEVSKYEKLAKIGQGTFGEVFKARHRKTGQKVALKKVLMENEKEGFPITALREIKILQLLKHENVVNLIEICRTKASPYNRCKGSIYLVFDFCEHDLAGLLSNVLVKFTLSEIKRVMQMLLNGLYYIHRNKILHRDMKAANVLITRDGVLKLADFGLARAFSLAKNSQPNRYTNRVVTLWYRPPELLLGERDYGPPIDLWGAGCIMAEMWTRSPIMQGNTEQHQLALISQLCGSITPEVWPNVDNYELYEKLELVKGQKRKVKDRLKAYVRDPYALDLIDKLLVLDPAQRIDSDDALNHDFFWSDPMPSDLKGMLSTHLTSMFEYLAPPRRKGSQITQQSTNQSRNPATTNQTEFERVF", "assay": "Hydrophobic-tagging degradation activity at CDK9 in human MDA-MB-468 cells assessed as degradation of CDK9 at 0.625 to 10 uM incubated for 24 hrs by Western blotting analysis", "assay_type": "cell-based", "conditions": "dose 0.625-10 µM"}},
  "note": "Activity calls are given as the source filed them. The rule behind the calls is not given here.",
  "data": [
    {"smiles": "O=C(Cn1cc(-c2ccc(-c3cncc4ccccc34)cc2)cn1)N1CCN(CCCC23CC4CC(CC(C4)C2)C3)CC1", "values": [
      {"measurement": "Activity", "setting": "HCT-116", "result": "Active"},
      {"measurement": "Activity", "setting": "MDA-MB-468", "result": "Active"},
      {"measurement": "Activity", "setting": "[1]", "result": "inactive"},
      {"measurement": "Activity", "setting": "[2]", "result": "Active"},
      {"measurement": "Activity", "setting": "MDA-MB-231 [3]", "result": "Active"},
      {"measurement": "Activity", "setting": "[4]", "result": "Active"},
      {"measurement": "Activity", "setting": "[5]", "result": "inactive"},
      {"measurement": "Activity", "setting": "[6]", "result": "inactive"},
      {"measurement": "Activity", "setting": "[7]", "result": "Active"},
      {"measurement": "Activity", "setting": "[8]", "result": "Tde"},
      {"measurement": "Activity", "setting": "[9]", "result": "Active"},
      {"measurement": "Activity", "setting": "[10]", "result": "Active"},
      {"measurement": "Activity", "setting": "[11]", "result": "Active"},
      {"measurement": "Activity", "setting": "[12]", "result": "inactive"},
      {"measurement": "Activity", "setting": "[13]", "result": "inactive"},
      {"measurement": "Activity", "setting": "[14]", "result": "Active"},
      {"measurement": "Activity", "setting": "[15]", "result": "inactive"},
      {"measurement": "inhibition", "setting": "[16]", "result": 70, "unit": "%"},
      {"measurement": "Activity", "setting": "[17]", "result": "Dose-Dependent Effect"},
      {"measurement": "Activity", "setting": "[18]", "result": "Active"},
      {"measurement": "Activity", "setting": "[19]", "result": "Dose-Dependent Effect"},
      {"measurement": "Activity", "setting": "[20]", "result": "inactive"},
      {"measurement": "Activity", "setting": "Cyclin-T1 (Homo sapiens)", "result": "inactive"},
      {"measurement": "IC50", "setting": "MDA-MB-231 [21]", "result": 6.22, "unit": "µM"},
      {"measurement": "Activity", "setting": "[22]", "result": "inactive"},
      {"measurement": "Activity", "setting": "[23]", "result": "Active"},
      {"measurement": "Activity", "setting": "[24]", "result": "Active"},
      {"measurement": "Activity", "setting": "[25]", "result": "inactive"}
    ]}
  ]
}
